{
  "source": "patent US9604932B2",
  "about": "(priority 2013, dated 2017)",
  "system": "peripheral hypertension (HTN)",
  "assay": "Minipig model of peripheral hypertension",
  "type": "in vivo, minipigs",
  "conditions": "protocol only; enterically-coated oral capsule",
  "protocol": "In order to test the efficacy of R-107 in peripheral hypertension (HTN), a series of 3 hemodynamic studies is carried out in conscious, instrumented, ambulatory, and telemetered minipigs (n=5) with HTN secondary to an endovascular-created, unilateral, renovascular stenosis. Minipigs are treated with R-107 administered as an enterically-coated oral capsule.\nIn Series A, the pharmacokinetic profile and hemodynamic effect of a single administration of R-107 (3, 10, 20, 30 mg/kg) is correlated with a one-week washout period between successive dose levels. Animals are monitored for 24 hours to collect continuous hemodynamic data and intermittent plasma concentrations of R-107 and its metabolites (0, 0.25, 0.5, 0.75, 1, 2, 4, 6, 8, 12, 16, 20, and 24 hours). In Series B, the most promising 2 doses of R-107 from Series A are evaluated by carrying out a repeat-dose study of R-107 administered every 6 hours (q6h) for a period of 3 days. The hemodynamic effects of R-107 are correlated with plasma peak and trough concentrations of R-107 and its metabolites obtained q6h. In Series C, the emergence of tachyphylaxis to R-107 in a 2 week repeat-dose study (q6h) is evaluated utilizing the optimal dose determined in Series B, wherein hemodynamics are correlated with plasma pharmacokinetic determinations as in Series B.",
  "data": [
    {"smiles": "CC(=O)ON1C(C)(C)CC(CO[N+](=O)[O-])C1(C)C", "note": "(stereo not shown) [R-107, 2,2,5,5-tetramethyl-3-(nitrooxymethyl)pyrrolidin-1-yl acetate]", "values": [
      {"measurement": "Efficacy in minipig model of peripheral hypertension", "value": "Effective"}
    ]}
  ]
}
